This is an account of results in ChEMBL document CHEMBL1144576, “Synthesis and antitumour evaluation of peptidyl-like derivatives containing the 1,3-benzodioxole system” (Eur J Med Chem, 2007).

Assay [1] has as its system Lytechinus variegatus. Kind of assay: Antimitotic effect in Lytechinus variegatus at blastulae stage at 100 ug/mL. The assay is classed as functional, Blastula stage.
The next assay relates to MDA-MB-435. Kind of assay: Cytotoxicity against MDA-MB-435 cells. It is filed as functional, cell-based. The settings on record: Homo sapiens.
The next assay relates to SF-295. Kind of assay: Cytotoxicity against SF295 cells. It is filed as functional, cell-based. The settings on record: Homo sapiens.
Assay [2] relates to Lytechinus variegatus. Put plainly: Antimitotic effect in Lytechinus variegatus at first cleavage stage at 100 ug/mL. The assay is classed as functional.
Another assay has as its system HCT-8. Put plainly: Cytotoxicity against HCT8 cells. The settings on record: Homo sapiens. It is filed as functional, cell-based.
In assay [3] the test system is Lytechinus variegatus. Put plainly: Antimitotic effect in Lytechinus variegatus at third cleavage stage at 10 ug/mL. It is filed as functional.
For assay [4], the system named is Lytechinus variegatus. Kind of assay: Antimitotic effect in Lytechinus variegatus at first cleavage stage at 10 ug/mL. It is filed as functional.
Assay [5] has as its system Lytechinus variegatus. Put plainly: Antimitotic effect in Lytechinus variegatus at blastulae stage at 10 ug/mL. It is filed as functional, Blastula stage.
Assay [6] deals with Lytechinus variegatus. Kind of assay: Antimitotic effect in Lytechinus variegatus at third cleavage stage at 100 ug/mL. It is filed as functional.
A further assay has as its system HL-60. Kind of assay: Cytotoxicity against HL60 cells. The assay is classed as functional, cell-based. The settings on record: Homo sapiens.

Regarding `C[C@H](NC(=O)Cc1ccc2c(c1)OCO2)C(N)=O`, the Activity in the assay with Lytechinus variegatus [1] is reported as 87.7%; in the assay on Lytechinus variegatus [2] it was 76.5%; with Lytechinus variegatus [3], 68.3%; with Lytechinus variegatus [4] it was 76.3%; with Lytechinus variegatus [5] it was 92%; in the assay on Lytechinus variegatus [6] it was 78.7%. The half-maximal inhibitory concentration (IC50) in the assay on MDA-MB-435, in the assay on SF-295, with HCT-8 and in the assay on HL-60 was greater than 50 µM each time.

Take `CC(C)C[C@H](NC(=O)Cc1cc2c(cc1[N+](=O)[O-])OCO2)C(N)=O`: the Activity in the assay on Lytechinus variegatus [1] was determined as 89%; in the assay with Lytechinus variegatus [2], 94.3%; with Lytechinus variegatus [3], 77%; with Lytechinus variegatus [4] it was 88.3%; in the assay on Lytechinus variegatus [5] it was 80.3%; in the assay with Lytechinus variegatus [6], 72.7%. Further, the half-inhibitory concentration (IC50) was greater than 50 µM with MDA-MB-435, 19.1 µM with SF-295, greater than 50 µM in the assay with HCT-8 and greater than 50 µM in the assay on HL-60.

Turning to `NC(=O)[C@H](Cc1ccccc1)NC(=O)Cc1cc2c(cc1[N+](=O)[O-])OCO2`, the Activity in the assay with Lytechinus variegatus [1] is given as 0%; with Lytechinus variegatus [2], 1.7%; in the assay on Lytechinus variegatus [3] it was 73.3%; with Lytechinus variegatus [4], 86.3%; with Lytechinus variegatus [5], 92%; in the assay on Lytechinus variegatus [6] it was 5.3%. Moreover, the IC50 in the assay on MDA-MB-435, with SF-295, with HCT-8 and with HL-60 was greater than 50 µM in each case.

With `CC(C)(C)OC(=O)NCCCC[C@H](NC(=O)Cc1cc2c(cc1[N+](=O)[O-])OCO2)C(N)=O`, the Activity amounted to 3.7% in the assay on Lytechinus variegatus [1]; 88.7% in the assay on Lytechinus variegatus [2]; 72.3% in the assay on Lytechinus variegatus [3]; 88.7% in the assay with Lytechinus variegatus [4]; 79.7% in the assay on Lytechinus variegatus [5]; 66.3% in the assay with Lytechinus variegatus [6]. The IC50 is 9.2 µM in the assay with MDA-MB-435, 31.6 µM in the assay on SF-295, greater than 50 µM in the assay with HCT-8 and 5.4 µM in the assay with HL-60.

For `CC[C@@H](C)[C@H](NC(=O)Cc1ccc2c(c1)OCO2)C(N)=O`, the Activity in the assay on Lytechinus variegatus [1] worked out at 84.7%; in the assay on Lytechinus variegatus [2], 87.7%; in the assay with Lytechinus variegatus [3], 62%; in the assay with Lytechinus variegatus [4] it was 89.3%; in the assay with Lytechinus variegatus [5], 94.7%; with Lytechinus variegatus [6], 70.3%. The IC50 in the assay on MDA-MB-435, in the assay on SF-295, with HCT-8 and with HL-60 was greater than 50 µM throughout.

Take `NC(=O)[C@H](Cc1ccc(Oc2c(Cl)cccc2Cl)cc1)NC(=O)Cc1cc2c(cc1[N+](=O)[O-])OCO2`: the Activity in the assay with Lytechinus variegatus [1] is reported as 15%; in the assay on Lytechinus variegatus [2], 85.3%; in the assay on Lytechinus variegatus [3] it was 38%; in the assay on Lytechinus variegatus [4] it was 92.3%; in the assay on Lytechinus variegatus [5], 1.7%; in the assay with Lytechinus variegatus [6], 46%. Besides, the IC50 in the assay with MDA-MB-435 was 9.9 µM; in the assay with SF-295, greater than 50 µM; with HCT-8, 8.5 µM; in the assay with HL-60, greater than 50 µM.

As for `CCOC(=O)CNC(=O)Cc1ccc2c(c1)OCO2`, the Activity is reported as 0.3% in the assay on Lytechinus variegatus [1]; 79.7% with Lytechinus variegatus [2]; 71.3% with Lytechinus variegatus [3]; 83% with Lytechinus variegatus [4]; 83.7% in the assay with Lytechinus variegatus [5]; 15.7% in the assay with Lytechinus variegatus [6]. Besides, the IC50 in the assay on MDA-MB-435 is greater than 50 µM; with SF-295 it was 13.5 µM; in the assay with HCT-8 it was 4.3 µM; in the assay with HL-60 it was 18.7 µM.

For `CC(C)[C@H](NC(=O)Cc1ccc2c(c1)OCO2)C(N)=O`, the Activity with Lytechinus variegatus [1] is 1%; in the assay with Lytechinus variegatus [2] it was 70.7%; with Lytechinus variegatus [3], 67%; with Lytechinus variegatus [4], 88%; with Lytechinus variegatus [5] it was 96.7%; in the assay on Lytechinus variegatus [6], 61.7%. In addition, the IC50 with MDA-MB-435, in the assay with SF-295, with HCT-8 and in the assay on HL-60 was greater than 50 µM throughout.

For `COc1cccc2c1C(=O)c1c(O)c3c(c(O)c1C2=O)C[C@@](O)(C(=O)CO)C[C@@H]3O[C@H]1C[C@H](N)[C@H](O)[C@H](C)O1` [DOXORUBICIN], the Activity with Lytechinus variegatus [1] worked out at 0%; with Lytechinus variegatus [2] it was 16.3%; in the assay on Lytechinus variegatus [3] it was 0%; in the assay on Lytechinus variegatus [4], 36%; in the assay on Lytechinus variegatus [5], 0.3%; with Lytechinus variegatus [6] it was 1.5%. Further, the IC50 with MDA-MB-435 amounted to 0.83 µM; in the assay with SF-295 it was 0.42 µM; in the assay with HCT-8, 0.03 µM.

In the case of `C=CCc1ccc2c(c1)OCO2` [SAFROLE], the Activity is given as 0.3% in the assay on Lytechinus variegatus [1]; 0.7% with Lytechinus variegatus [2]; 33.7% in the assay on Lytechinus variegatus [3]; 59.5% in the assay on Lytechinus variegatus [4]; 31.7% in the assay with Lytechinus variegatus [5]; 0% in the assay with Lytechinus variegatus [6]. In addition, the IC50 in the assay with MDA-MB-435 was 105 µM; with SF-295, 32.6 µM; with HCT-8, 36.1 µM; in the assay with HL-60 it was 104 µM.
